Results as given in patent publication US7981878B2, “Tumor treatment with gliotoxin derivatives” (priority 2005, dated 2011).

Tested on: CD23
Assay: CD23 expression (Notch2 target gene) in B-CLL cells by FACS
Format: cell-based, human
Settings: 0.2 μM gliotoxin, 24 h
Protocol: FIG. 3: Gliotoxin is a potent Notch2 trans-activation inhibitor in B-CLL cells. (A) EMSA showing the inhibition of DNA-bound Notch2IC complexes in the presence of 0.2 μg Gliotoxin. B-CLL samples (n=10) were cultured in the presence of 1 ng/ml TPA with or without 0.2 μM Gliotoxin for 24 hours. Nuclear extracts were subjected to EMSA using a oligonucleotide probe spanning a well defined CBF1/NotchIC binding site derived from the CD23a promoter. (B). Corresponding FACS analysis (plus 10 additional B-CLL samples) showing the downregulation of the Notch2 target gene CD23 as well as the induction of apoptosis of Gliotoxin treated B-CLL samples. Columnes represent the percentage of CD19^+CD23^+ (grey bars) and apoptotic cells (black bars: including early apoptotic cells single positive for AnnexinV, and late apoptotic cells double positive for AnnexinV and probidium iodide), respectively.
As drug screening model, a cell culture system was established which conserves the phenotype of freshly isolated B-CLL cells (3×10^6 B-CLL cells/ml RPMI medium+10% FCS, supplemented with 1 ng/ml of TPA). Notch2 activity in the cell nucleus is determined by means of EMSA (electrophoretic mobility shift assay) experiments, and the cell viability (Probidium iodide/annexinV) and CD23 expression (Notch2 target gene) is determined by means of FACS (flow cytometry) analyses, respectively. […]

`CN1C(=O)[C@]23CC4=CC=C[C@H](O)[C@H]4N2C(=O)[C@@]1(CO)SS3` [gliotoxin, [3R-(3α,5aβ,6β,10aα)]-2,3,5a,6-tetrahydro-6-hydroxy-3-(hydroxymethyl)-2-methyl-10H-3,10a-epi-dithiopyrazino[1,2-a]indol-1,4-dion] was tested, and the CD23 expression was “loss of the CD23 expression”.
